Experimental data: patent publication US20090318396A1, “CORTICOSTEROID LINKED BETA-AGONIST COMPOUNDS FOR USE IN THERAPY” (priority 2008, published 2009)

Legend:
[1] = Stability of steroid C-21 esters, carbonates and carbamates in rat lung homogenate; conditions: for Mean [Parent] (nM) at 2 hrs, 37° C.: parent compound; for Mean % compound remaining at 2 hrs, 37° C.: 900 nM, n=3
Protocol: Lungs from Fischer 344 rats were obtained fresh by overnight delivery at 4° C. from BioReclamation Inc. (Hicksville, N.Y.). Lungs were weighed and homogenized in a 1:3 w/v ratio with sterile phosphate buffered saline (PBS, 10 mM, pH 7.4) in glass vials on ice. After centrifugation at 3,000×g for 10 min at 4° C. the supernatant was decanted into sterile conical tubes and placed on ice. The total protein content of the supernatant was determined by the bicinchoninic acid (BCA) method (Pierce Biotechnology, Rockford, Ill.), using bovine serum albumin (BSA) as the standard. Lung homogenates were prepared to a final concentration of 1 mg total protein/mL in 10 mM PBS, pH 7.4.
Heat-inactivation was achieved by incubation at 80° C. for 30 min, after which the homogenate was allowed to cool to room temperature, stored overnight at 4° C. The homogenate was used for the assay and standard curve preparations. Before use, each homogenate preparation was equilibrated for 15 min in a 37° C. water bath. […] DMSO (2.7 uL) added to 3 mL of temperature-equilibrated homogenate served as a control. Aliquots (100 uL) of homogenate+compound were added to 400 μL quenching solution consisting of 100% HPLC-grade acetonitrile+500 ng/mL glyburide for the zero time point (n=3 for each time point).
The glyburide served as an internal LC/MS/MS standard. The remainder of each drug+homogenate solution was aliquoted into a 96-well tissue culture plates. After an additional 30 min and 120 min incubation at 37° C., 100 μL aliquots were added to 400 μL quenching solution. Denatured proteins in the quenching solution were separated by centrifugation at 3000×g for 2 min at 4° C., and 160 μL of the supernatants were transferred to new 96-well plate for analysis by LC/MS/MS. Collection plates were covered with plastic film and were kept on ice. For storage, covered plates were and kept stored at −80° C. until further use.
An aliquot of 50 μL of each sample was diluted with 50 μL of water containing internal standard at 4° C. The diluted samples were then centrifuged for 20 minutes at 3000 rpm at 4° C. An aliquot of 20 μL of the solution was injected into the TSQ Ultra Quantum.
LC/MS/MS system. The compounds were separated by HPLC using a HyPurity C18 HPLC column (30×2.1 mm, 5μ) from ThermoHypersil. A Multiplex LX-2 HPLC system (Cohesive Technologies, Franklin, Mass.) with two identical Agilent 1100 series binary pumps (P/N G1312A) were used for elution and separation. Samples were maintained at 4° C. in an HTS Pal autosampler (LEAP Technologies, Carrboro, N.C.) in order to reduce any potential spontaneous hydrolysis of the compounds before injection onto the HPLC. The analytes were eluted using the following mobile phases; Mobile phase A contained 1% acetonitrile in 10 mM ammonium formate aqueous solution with 1% formic acid. Mobile phase B contained 80% acetonitrile in 10 mM ammonium formate with 1% formic acid. The HPLC elution program used to elute the analytes was as follows:
The samples were further analyzed by tandem mass spectrometry using a TSQ Quantum Ultra triple quadrupole mass spectrometer (Thermo Finnigan, San Jose, Calif.) using a selective reaction monitoring (SRM) scan type. The mass spectrometry parameters used were as follows:
Nine-point standard curves for each test compound were prepared and analyzed in heat-inactivated lung homogenate. […] The data expressed in Table 2 represent the mean (n=3) percent remaining compound in both types of homogenate at 2 hours, 37° C.

[2] = Drug levels in plasma, BALF and lung after IT administration in the rat
[3] = tested on: Ascaris suum antigen-induced bronchoconstriction and airway hyperreactivity; assay: Ascaris suum-induced pulmonary responses in sheep; type: in vivo; conditions: duration of action regimen
Protocol: One breath unit is defined as one breath of a 1% w/v carbachol solution. Test article was administered either by a pre-dosing or duration of action protocol. In the pre-dosing regimen, animals were dosed once daily for four days, with the last dose administered 1 hr before antigen. In the duration of action regimen, animals were dosed once daily for four days, with the last dose administered 24 hours before antigen. Test article, Ascaris antigen, and carbachol were administered by nebulized aerosol to intubated sheep.

[4] = tested on: carbachol-induced bronchoconstriction; assay: Carbachol-induced bronchoconstriction in sheep; type: in vivo; conditions: Example 52 4.7 mg, Salmeterol 2.5 mg, mean ± s.e.m, n=4
Protocol: Bronchoconstriction was evaluated as a function of increased pulmonary resistance following carbachol challenge. […] Test article was administered either by a pre-dosing or duration of action protocol. In the pre-dosing regimen, animals were dosed once daily for four days, with the last dose administered 1 hr before carbachol challenge. In the duration of action regimen, animals were dosed once daily for four days, with the last dose administered 24 hours before carbachol challenge. Test article and carbachol were administered by nebulized aerosol to intubated sheep.

[5] = analyte after IT administration of Example 83, 1 mg/kg, 0.5 hr
[6] = analyte after IT administration of Example 83, 1 mg/kg, 2.0 hr
[7] = analyte after IT administration of Example 83, 1 mg/kg, 4.0 hr

SMILES	Mean [Parent] (nM) at 2 hrs, 37° C. ([1]; Active homogenate) [nM]	Mean % compound remaining at 2 hrs, 37° C. ([1]; Active rat lung homogenate) [%]	Mean % compound remaining at 2 hrs, 37° C. ([1]; Inactive (heat-inactivated) rat lung homogenate) [%]	Mean [Parent] (nM) at 2 hrs, 37° C. ([1]; Inactive homogenate) [nM]	melting point	Plasma Conc ([2]; analyte after IT administration of Example 52, 3 mg/kg, 0.5 hr)	Plasma Conc ([2]; analyte after IT administration of Example 52, 3 mg/kg, 2.0 hr)	Plasma Conc ([2]; analyte after IT administration of Example 52, 3 mg/kg, 4.0 hr)	BALF Conc [2, 5]	Plasma Conc [2, 5]	BALF Conc [2, 6]	Plasma Conc [2, 6]	BALF Conc [2, 7]	Plasma Conc [2, 7]	Effect on late phase bronchoconstriction and development of airway hyperreactivity [3]	Lung Resistance (% Increase) at 2% Carbachol ([4]; Duration of action regimen (last dose 24 hours before carbachol), Ciclesonide 2.2 mg + Salmeterol Xinafoate 2.5 mg) [% Increase]	Lung Resistance (% Increase) at 2% Carbachol ([4]; Predosing regimen (last dose 1 hr before carbachol)) [% Increase]
CCN(CC)Cc1ccc(C(=O)OCC(=O)[C@@]23O[C@H](C4CCCCC4)O[C@@H]2C[C@H]2[C@@H]4CCC5=CC(=O)C=C[C@]5(C)[C@H]4[C@@H](O)C[C@@]23C)cc1 [Example 30, 4-Diethylaminomethylbenzoic acid [[11β,16α]-[[((R)-cyclohexylmethylene)bis(oxy)]-11-hydroxypregna-1,4-diene-3,20-dion-21-yl]]ester]	102	46	51	109	123.5 °C (dec.)	–	–	–	–	–	–	–	–	–	–	–	–
OCc1cc(C(O)CNCCCCCCOCCCCc2ccccc2)ccc1O (centres unmarked) [salmeterol]	–	–	–	–	–	BLQ	BLQ	BLQ	BLQ	BLQ	BLQ	BLQ	BLQ	BLQ	reduced efficacy	594 ± 56	352 ± 27
